# Experimental data from PubChem BioAssay (NCI).
# Where “and” joins values, the source holds several entries; their conditions need not be identical. Equal entries are not always repeated.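 Exposure lasted 48 hours, with cells grown in 96-well plates and compounds tested at five concentrations. GI50 marks 50% less growth. TGI marks complete inhibition of growth.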
# Test system: HCT-116 colon
# Test: DTP human tumour cell line panel, 48 h
SMILES,GI50 [µM],TGI [µM]
NC(N)=NC(N)=Nc1cc2ccccc2c2ccccc12,5.33,18.3
CC12CCCC(CC(=O)c3[nH]c4ccccc4c31)C2 (stereo unspecified),0.429,18.9
CN1C(NC(=O)c2ccc(Cl)nc2)=NS(=O)(=O)c2cc(Cl)ccc21,> 100,> 100
Cc1cc(C2CCCCC2)n(O)c(=O)c1,1.02,> 100
COC(=O)C(=O)C(C(=O)C=C(C)C)C(=O)C(=O)Nc1ccc(Cl)cc1C (stereo unspecified),,> 100
CC(=O)[O][Hg][c]1c(C)c(C)c(C)c(C)c1C,3.38,11.8
CN(C)C(=S)SN(C)C(=O)Nc1ccccc1,,> 67.4
Cc1ccc(C(=O)/C=C/c2ccccc2O)c(C)c1,,> 100
COc1cc2c(/C=C3/C(=O)Nc4cccc(Cl)c43)c(Cl)n(Cc3ccccc3)c2cc1C,4.19,55.6
Cc1[nH]c(N=Nc2ccccc2)nc1N=Nc1ccccc1,3.12,27.6
COc1ccc(-c2cc3c(nn2)-c2ccccc2C3=O)cc1,70.2,> 100
N#Cc1cnsc1,,> 100
O=C1C2=C(CC3C(C2)C3(Br)Br)C(=O)C2=C1CC1C(C2)C1(Br)Br (stereo unspecified),,> 100
COc1ccc(C2CC(=O)c3c(O)c(OC)c(OC)c(OC)c3O2)c(O)c1 (stereo unspecified),0.053,60.9
CC(=O)c1ccc(NC(=O)/C(Cc2ccccn2)=N/NC(=O)C[N+](C)(C)C)cc1,,> 100
CCc1cccc(C)c1NC(C)=O,,> 100

# Test system: SK-OV-3 ovarian
# Test: DTP human tumour cell line panel, 48 h
SMILES,GI50 [µM],TGI [µM]
COc1ccc(/C(=N/Nc2ccc([N+](=O)[O-])cc2)Sc2cc(Cl)c(C)cc2S(N)(=O)=O)cc1,5.89,12.7
NC(N)=NC(N)=Nc1cc2ccccc2c2ccccc12,11.4,24
CC12CCCC(CC(=O)c3[nH]c4ccccc4c31)C2 (stereo unspecified),3.53,> 76.1
CN1C(NC(=O)c2ccc(Cl)nc2)=NS(=O)(=O)c2cc(Cl)ccc21,> 100,> 100
Cc1cc(C2CCCCC2)n(O)c(=O)c1,1.91,> 100
COC(=O)C(=O)C(C(=O)C=C(C)C)C(=O)C(=O)Nc1ccc(Cl)cc1C (stereo unspecified),,> 100
CC(=O)[O][Hg][c]1c(C)c(C)c(C)c(C)c1C,2.69,6.04
CN(C)C(=S)SN(C)C(=O)Nc1ccccc1,,> 100
Cc1ccc(C(=O)/C=C/c2ccccc2O)c(C)c1,,> 100
COc1cc2c(/C=C3/C(=O)Nc4cccc(Cl)c43)c(Cl)n(Cc3ccccc3)c2cc1C,7.24,> 74.8
Cc1[nH]c(N=Nc2ccccc2)nc1N=Nc1ccccc1,3.14,> 32.4
COc1ccc(-c2cc3c(nn2)-c2ccccc2C3=O)cc1,> 100,> 100
N#Cc1cnsc1,,> 100
O=C1C2=C(CC3C(C2)C3(Br)Br)C(=O)C2=C1CC1C(C2)C1(Br)Br (stereo unspecified),,> 100
COc1ccc(C2CC(=O)c3c(O)c(OC)c(OC)c(OC)c3O2)c(O)c1 (stereo unspecified),0.308,24.8
CC(=O)c1ccc(NC(=O)/C(Cc2ccccn2)=N/NC(=O)C[N+](C)(C)C)cc1,,> 100
CCc1cccc(C)c1NC(C)=O,,> 100

# Test system: SF-295 CNS
# Test: DTP human tumour cell line panel, 48 h
SMILES,GI50 [µM],TGI
COc1ccc(/C(=N/Nc2ccc([N+](=O)[O-])cc2)Sc2cc(Cl)c(C)cc2S(N)(=O)=O)cc1,3.31,8.78 µM
NC(N)=NC(N)=Nc1cc2ccccc2c2ccccc12,13.3,28.4 µM
CC12CCCC(CC(=O)c3[nH]c4ccccc4c31)C2 (stereo unspecified),0.508,7.37 µM
CN1C(NC(=O)c2ccc(Cl)nc2)=NS(=O)(=O)c2cc(Cl)ccc21,> 100,> 100 µM
Cc1cc(C2CCCCC2)n(O)c(=O)c1,0.81,86.8 µM and > 100 µM
COC(=O)C(=O)C(C(=O)C=C(C)C)C(=O)C(=O)Nc1ccc(Cl)cc1C (stereo unspecified),,> 100 µM
CC(=O)[O][Hg][c]1c(C)c(C)c(C)c(C)c1C,1.71,3.76 µM
CN(C)C(=S)SN(C)C(=O)Nc1ccccc1,,> 100 µM
